Read-outs that look alike come from different tables or passages of the source.
Legend:
VZV (wild-type strains) = assay: Anti-VZV assay (wild-type strains): virus-induced cytopathicity in HEL cell cultures; type: cell-based, varicella-zoster virus
HEL cells [1] = tested on: HEL cells
CMV = assay: Anti-CMV assay: virus-induced cytopathicity in HEL cell cultures
HEL cells [2] = details: read-out: CC50 (HEL), HEL cells
HIV-2(ROD) = assay: Inhibition of HIV-2 (ROD)-induced cytopathicity (giant cell formation) in CEM cells; type: cell-based; details: read-out: EC50 HIV-2 (concentration required to inhibit HIV-induced giant cell formation by 50%); HIV-2, CEM cell cultures
Protocol: (§1) A variety of glycopeptide antibiotic derivatives of vancomycin, eremomycin and teicoplanin including their aglycon derivatives were evaluated for their inhibitory activity against HIV-1 (IIIB) and HIV-2(ROD) in CEM cell cultures.

HIV-1 (IIIB) = assay: Inhibition of HIV-1 (IIIB)-induced cytopathicity (giant cell formation) in CEM cells; type: cell-based; details: read-out: EC50 HIV-1 (concentration required to inhibit HIV-induced giant cell formation by 50%); HIV-1, CEM cell cultures
Protocol: as §1

[3] = tested on: human lymphocyte Molt4/clone 8; assay: Cytostatic activity assay, Molt4/clone 8 cells; type: cell-based; details: read-out: IC50 Molt4/C8 (compound concentration required to inhibit tumor cell proliferation by 50%)
human lymphocyte CEM = assay: Cytostatic activity assay, CEM cells; type: cell-based; details: read-out: IC50 CEM (compound concentration required to inhibit tumor cell proliferation by 50%)
murine leukemia L1210 = assay: Cytostatic activity assay, L1210 cells; type: cell-based; details: read-out: IC50 L1210 (compound concentration required to inhibit tumor cell proliferation by 50%)
FCV = assay: Feline corona virus assay in Feline Crandel kidney cells (MTS); type: cell-based; details: for EC50: FCV in FCK cells, read-out: EC50 FCV
Protocol: Feline Crandel kidney cells were seeded in 96-well microtiter plates at 24,000 cells/well. Then, 24 hrs later, an appropriate inoculum of FCV is added together with 5-fold dilutions of the test compounds. After 4 days, a MTS/PMS solution was added to each well. Following a 90 min incubation period at 37° C., the optical density of the wells was read at 498 nm in a microplate reader.

FCK cells = details: read-out: CC50 FCK; FCK cells
[4] = VZV strain OKA, HEL cell cultures, read-out: EC50 VZV (OKA)
[5] = VZV strain YS, HEL cell cultures, read-out: EC50 VZV (YS)
[6] = read-out: EC50 CMV AD-169, CMV strain AD-169, HEL cell cultures
[7] = read-out: EC50 CMV Davis, CMV strain Davis, HEL cell cultures

Compound	EC50 (VZV (wild-type strains); [4]) [µM]	EC50 (VZV (wild-type strains); [5]) [µM]	MTC (HEL) (HEL cells [1]; anti-CMV table)	MTC (HEL) (HEL cells [1]; anti-VZV table)	EC50 (CMV; [6]) [µM]	EC50 (CMV; [7]) [µM]	CC50 (HEL cells [2]; anti-CMV table) [µM]	CC50 (HEL cells [2]; anti-VZV table) [µM]	EC50 (HIV-2(ROD)) [µM]	activity against VZV (VZV (wild-type strains))	EC50 (HIV-1 (IIIB)) [µM]	IC50 [3] [µM]	IC50 (human lymphocyte CEM) [µM]	IC50 (murine leukemia L1210) [µM]	activity against FCV (FCV)	EC50 (FCV) [µM]	CC50 (FCK cells) [µM]	EC50 (VZV (wild-type strains); read-out: EC50 against VZV) [µM]	anti-CMV activity (CMV)
CCCCCCCCCCNC1(C)CC(OC2C(Oc3c4cc5cc3Oc3ccc(cc3Cl)C(O)C(NC(=O)C(CC(C)C)NC)C(=O)NC(CC(N)=O)C(=O)NC5C(=O)NC3C(=O)NC(C(=O)NC(C(=O)O)c5cc(O)cc(O)c5-c5cc3ccc5O)C(OC3CC(C)(N)C(O)C(C)O3)c3ccc(cc3)O4)OC(CO)C(O)C2O)OC(C)C1O (centres unmarked) [Compound 68]	> 2	0.7	5 to 50 µM	5 to 50 µM	20	> 20	> 200	> 200	–	–	–	–	–	–	–	–	–	–	–
CNC(=O)C1NC(=O)C2NC(=O)C(NC(=O)C3NC(=O)C(CC(N)=O)NC(=O)C(NC(=O)C(CC(C)C)N(C)C(=O)OC(C)(C)C)C(O)c4ccc(c(Cl)c4)Oc4cc3cc(c4O)Oc3ccc(cc3)C2O)c2ccc(O)c(c2)-c2c1cc(O)c(CN1CCN(Cc3ccc(-c4ccccc4)cc3)CC1)c2O (centres unmarked) [Compound 7]	1	0.87	–	≧20 μM	–	–	–	> 50	3.5 ± 0.7	pronounced activity	4	> 100	> 100	84 ± 22	pronounced activity	3.6	> 50	–	–
NC1C(=O)NC2Cc3ccc(c(Cl)c3)Oc3cc4cc(c3O)Oc3ccc(cc3Cl)C(O)C3NC(=O)C(NC(=O)C4NC(=O)C(NC2=O)c2cc(O)cc(c2)Oc2cc1ccc2O)c1ccc(O)c(c1)-c1c(O)cc(O)cc1C(C(=O)N1CCN(Cc2ccc(C=Cc4ccccc4)cc2)CC1)NC3=O (centres unmarked) [Compound 127]	0.7	0.3	≧5-20 μM	≧5-20 μM	10	> 5	44	44	–	–	–	–	–	–	–	–	–	–	–
CNC(CC(C)C)C(=O)NC1C(=O)NC(CC(N)=O)C(=O)NC2C(=O)NC3C(=O)NC(C(=O)NC(C(=O)NCc4ccc(F)cc4)c4cc(O)cc(O)c4-c4cc3ccc4O)C(O)c3ccc(cc3)Oc3cc2cc(c3O)Oc2ccc(cc2Cl)C1O (centres unmarked) [Compound 100]	–	–	–	–	–	–	–	–	> 125	–	41.7 ± 20.2	> 250	> 250	> 250	pronounced activity	20	> 100	–	–
CCCCc1ccc(CNCc2c(O)cc3c(c2O)-c2cc(ccc2O)C2NC(=O)C4NC(=O)C5NC(=O)C(Cc6ccc(c(Cl)c6)Oc6cc4cc(c6O)Oc4ccc(cc4Cl)C(O)C(NC2=O)C(=O)NC3C(=O)NC)NC(=O)C(NC(=O)OC(C)(C)C)c2ccc(O)c(c2)Oc2cc(O)cc5c2)cc1 (centres unmarked) [Compound 47]	–	–	–	–	–	–	–	–	12 ± 5.2	–	6 ± 1	> 100	> 100	70 ± 23	–	16	> 50	–	–
NC1C(=O)NC2Cc3ccc(c(Cl)c3)Oc3cc4cc(c3O)Oc3ccc(cc3Cl)C(O)C3NC(=O)C(NC(=O)C4NC(=O)C(NC2=O)c2cc(O)cc(c2)Oc2cc1ccc2O)c1ccc(O)c(c1)-c1c(cc(O)c(CNC2C4CC5CC(C4)CC2C5)c1O)C(C(=O)NC1C2CC4CC(C2)CC1C4)NC3=O (centres unmarked) [Compound 52]	–	–	–	–	–	–	–	–	3.5 ± 2.1	–	2.5 ± 0.7	> 250	> 250	202 ± 68	–	14	> 50	–	–
NC(=O)CC1NC(=O)C(NC(=O)C(N)Cc2c[nH]c3ccccc23)C(O)c2ccc(c(Cl)c2)Oc2cc3cc(c2O)Oc2ccc(cc2)C(O)C2NC(=O)C(NC(=O)C3NC1=O)c1ccc(O)c(c1)-c1c(O)cc(O)cc1C(C(=O)O)NC2=O [Compound 109, N-(D-Trp)-(de-N-Me-D-Leu)eremomycin aglycon]	–	–	–	–	–	–	–	–	42.5 ± 10.6	–	7.3 ± 0.58	> 250	> 250	> 250	pronounced activity	28	> 100	–	–
CNC(CC(C)C)C(=O)NC1C(=O)NC(CC(N)=O)C(=O)NC2C(=O)NC3C(=O)NC(C(=O)NC(C(=O)O)c4cc(O)cc(O)c4-c4cc3ccc4O)C(O)c3ccc(c(Cl)c3)Oc3cc2cc(c3OC2OC(CO)C(O)C(O)C2OC2CC(C)(NCc3ccc(-c4ccc(Cl)cc4)cc3)C(O)C(C)O2)Oc2ccc(cc2Cl)C1O (centres unmarked) [Compound 59]	0.87	0.89	5 to 20 µM	5 to 20 µM	> 5	16	> 50	> 50	–	–	–	–	–	–	–	–	–	0.87 to 0.89	anti-CMV activity
CNC(CC(C)C)C(=O)NC1C(=O)NC(CC(N)=O)C(=O)NC2C(=O)NC3C(=O)NC(C(=O)NC(C(=O)N4CCC5CCCCC5C4)c4cc(O)cc(O)c4-c4cc3ccc4O)C(O)c3ccc(cc3)Oc3cc2cc(c3O)Oc2ccc(cc2Cl)C1O (centres unmarked) [Compound 101]	–	–	–	–	–	–	–	–	> 125	–	63.3 ± 53.5	> 250	> 250	> 250	pronounced activity	47	> 100	–	–
NC(=O)CC1NC(=O)C(N)C(O)c2ccc(c(Cl)c2)Oc2cc3cc(c2O)Oc2ccc(cc2)C(O)C2NC(=O)C(NC(=O)C3NC1=O)c1ccc(O)c(c1)-c1c(O)cc(O)cc1C(C(=O)N1CCC3CCCCC3C1)NC2=O (centres unmarked) [Compound 108]	–	–	–	–	–	–	–	–	2	–	2.8	–	–	–	–	81	> 300	–	–
CNC(CC(C)C)C(=O)NC1C(=O)NC(CC(N)=O)C(=O)NC2C(=O)NC3C(=O)NC(C(=O)NC(C(=O)NCC45CC6CC(CC(C6)C4)C5)c4cc(O)cc(O)c4-c4cc3ccc4O)C(O)c3ccc(cc3)Oc3cc2cc(c3O)Oc2ccc(cc2Cl)C1O (centres unmarked) [Compound 99]	–	–	–	–	–	–	–	–	7	–	1.6 ± 0.36	126 ± 11	148 ± 3	94 ± 15	pronounced activity	23	≥ 100	–	–
NC(=O)CC1NC(=O)C(N)C(O)c2ccc(c(Cl)c2)Oc2cc3cc(c2O)Oc2ccc(cc2)C(O)C2NC(=O)C(NC(=O)C3NC1=O)c1ccc(O)c(c1)-c1c(O)cc(O)cc1C(C(=O)NCc1ccc(F)cc1)NC2=O (centres unmarked) [Compound 106]	–	–	–	–	–	–	–	–	30	–	27	–	–	–	–	74	> 300	–	–
CCCCc1ccc(CNC2C(Oc3c4cc5cc3Oc3ccc(cc3Cl)C(O)C3NC(=O)C(NC(=O)C5NC(=O)C5NC(=O)C(Cc6ccc(cc6)O4)NC(=O)C(NC)c4ccc(O)c(c4)Oc4cc(O)c(Cl)c5c4)c4ccc(O)c(c4)-c4c(cc(O)c(CN5CCN(Cc6ccc(-c7ccccc7)cc6)CC5)c4O)C(C(=O)NCCCN(C)C)NC3=O)OC(C(=O)NCCCN(C)C)C(O)C2O)cc1 (centres unmarked) [Compound 13]	–	–	–	–	–	–	–	–	20	–	3.5 ± 2.1	35 ± 6.1	212 ± 54	25 ± 0.7	pronounced activity	5.9	30	–	–
